Experimental data: US20110008304A1, “USE OF CELLS TO FACILITATE TARGETED DELIVERY OF NANOPARTICLE THERAPIES” (KANSAS STATE UNIVERSITY RESEARCH FOUNDATION, priority 2007, published 2011)
“Also recorded” adds a separate entry of the source. Blank lines part the entries; values can stand above or below the molecule they belong to.

Legend:
Pan 02 cells = test: Pan 02 cell viability, MTT assay; type: cell-based, mouse
Experimental: Cell proliferation evaluation. The number of viable cells was evaluated by the MTT ([…]-2,5-diphenyl-tetrazolium bromide) assay (Roche Diagnostics GmbH, Germany) as well as hemocytometer and trypan blue exclusion analysis. Pan 02 cells were seeded in a 96 well plate. […] After incubation for 48 hrs, the medium was replaced with fresh medium containing 0.5 mg of MTT reagent per ml of medium and incubated for four hours at 37° C. Then, 100 μL of solubilization reagent was added to each well and incubated overnight at 37° C. Absorbance was measured in an ELISA plate reader at 550 nm, with the absorbance at 690 nm to correct for background, and viability was expressed as the percentage of untreated controls. To validate the MTT assay, trypan blue exclusion and hemocytometer counting assay was performed in parallel. All experiments were done in duplicate and were performed three times.
Statistical analysis. All values are expressed as means ±SE. Values of untreated cells were taken as […]. Statistical analysis of all Pan 02 cell proliferation assays were analyzed using repeated measures of ANOVA. […] Statistical significance was considered if P<0.05.

HL-60 tumor cells = test: MTS:PMS viability assay at day 4 in vitro, HL-60; type: cell-based; conditions: MTS:PMS assay at day 4 in vitro, means ± SD, n = 3
LL/2 tumor cells = test: MTS:PMS viability assay at day 4 in vitro, LL/2; type: cell-based; conditions: MTS:PMS assay at day 4 in vitro, means ± SD, n = 3
[1] = Solubility in water / encapsulation; type: physicochemical
L1210 tumor cells = test: MTS:PMS viability assay at day 4 in vitro, L1210; type: cell-based; conditions: MTS:PMS assay at day 4 in vitro, means ± SD, n = 3
[2] = Anti-cancer effect of drug-loaded nanogels, test not specified; type: cell-based
[3] = test system: MDA-MB-231 breast tumor cell line; test: NCI 60 human tumor cell lines, SRB protein assay, MDA-MB-231; type: cell-based; conditions: SRB protein assay after 2 days, read-out: GI50 (growth inhibition at 50%)
From the text: (§1) An analog of AQ10, AQ9 (NSC 727286), has been evaluated by NCI's 60 human tumor cell lines using the SRB protein assay to estimate cell growth and viability after 2 days. […] AQ10 is less cytotoxic than AQ9 in L1210 and HL60 cell lines (Table 1).
(§2) Similarly TT compounds such as TT24 were synthesized from TT2 and evaluated for their antitumor activities (Hua et al. 2004. Tetrandedron 60:10155-63, Hua et al. […], Hua et al. 2006. Anticancer Agents Med. Chem. 6:303-18, Wang et al. 2002. Cancer Lett. 188:73-83). Selective bromination of TT2 with N-bromosuccinimide (NBS) in DMF followed by addition of allylmethylamine and removal of the allyl protecting group with Pd(PPh3)4 afforded TT24. TT24 (NSC 727284-K), has been evaluated by NCI's 60 human tumor cell lines using the SRB protein assay to estimate cell growth and viability after 2 days.

HCT-116 colon = test: NCI 60 human tumor cell lines, SRB protein assay, HCT-116; type: cell-based; conditions: SRB protein assay after 2 days, read-out: GI50 (growth inhibition at 50%)
From the text: as §1

SN12 C renal = test: NCI 60 human tumor cell lines, SRB protein assay, SN12 C; type: cell-based; conditions: SRB protein assay after 2 days, read-out: GI50 (growth inhibition at 50%)
From the text: as §1

K562 = test: NCI 60 human tumor cell lines, SRB protein assay, K562; type: cell-based; conditions: K562, SRB protein assay after 2 days; read-out: GI50 (growth inhibition at 50%)
From the text: as §1

HL-60 = test: NCI 60 human tumor cell lines, SRB protein assay, HL-60; type: cell-based; conditions: HL-60, SRB protein assay after 2 days; read-out: GI50 (growth inhibition at 50%)
From the text: as §1

SR = test: NCI 60 human tumor cell lines, SRB protein assay, SR; type: cell-based; conditions: SRB protein assay after 2 days, read-out: GI50 (growth inhibition at 50%)
From the text: as §1

MOLT-4 = test: NCI 60 human tumor cell lines, SRB protein assay, MOLT-4; type: cell-based; conditions: MOLT-4, SRB protein assay after 2 days; read-out: GI50 (growth inhibition at 50%)
From the text: as §1

TK+UCMS cells = test: Cell number of TK+UCMS cells exposed to pro-drug; type: cell-based; conditions: dose range of 0 μM to 1600 μM
From the text: UCMS cells have been successfully engineered for stable expression of HSV-thymidine kinase. […] Thus, the suicide gene system is effective; after GCV administration to mice bearing tumors into which the UCMS-NG-TH (UCMS cells containing nanogels loaded with therapeutic agents) have trafficked, the NG-TH will be released into the tumor interstitium when the stem cells undergo apoptosis.

L1210 cells = test: Inhibition of L1210 cells by TT24; type: cell-based
NCI/ADR-RES = test: NCI 60 human tumor cell lines, SRB protein assay, NCI/ADR-RES; type: cell-based; conditions: NCI/ADR-RES breast, SRB protein assay after 2 days; read-out: GI50 (growth inhibition at 50%)
From the text: as §2

[4] = test system: T47D breast tumor cell line; test: NCI 60 human tumor cell lines, SRB protein assay, T47D; type: cell-based; conditions: SRB protein assay after 2 days, read-out: GI50 (growth inhibition at 50%)
From the text: as §2

Molecule: O=C1C=CC(=O)c2cc3cc(CO)ccc3cc21 [AQ10, 6-(hydroxymethyl)-1,4-anthracenedione]
Effect of AQ10 dissolved in DMSO on Pan 02 cell viability / growth (Pan 02 cells; MTT assay, 48 hrs, doses of 4.2, 8.4 and 16.8 μM, vs untreated and DMSO treated cells): significantly attenuated; also recorded: significant effect; also recorded: significantly decreased
Growth attenuation of Pan 02 cells, AQ10 in nanogel PEG-PEI relative to AQ10 alone (in DMSO) (Pan 02 cells; comparison of AQ10-nanogel PEG-PEI with AQ10 alone): three to four times less effective
IC50 (HL-60 tumor cells; Homo sapiens, HL-60, 96 h): 125 ± 7 nM
IC50 (LL/2 tumor cells; LL/2, 96 h): 494 ± 59 nM
Solubility in water [1]: insoluble
IC50 (L1210 tumor cells; Mus musculus, L1210, 96 h): 37 ± 2 nM

Molecule: Triton
Anti-cancer / antitumor effect [2]: significantly potentiated the anti-cancer effect

Molecule: Nc1nc(O)c2ncn(COC(CO)CO)c2n1 [Ganciclovir]
Cell number of TK+UCMS cells (TK+UCMS cells): Decreased cell number

The next lines start with results.

IC50 (HL-60 tumor cells): 79 ± 3 nM
IC50 (LL/2 tumor cells): 680 ± 87 nM
IC50 (L1210 tumor cells): 26 ± 1 nM
Molecule: O=C1C=CC(=O)c2cc3cc(CBr)ccc3cc21 [AQ9]
GI50 [3]: 735 nM
GI50 (HCT-116 colon): 606 nM
GI50 (SN12 C renal): 379 nM
GI50 (K562): 339 nM
GI50 (HL-60): < 10 nM
GI50 (SR): 37.1 nM
GI50 (MOLT-4): < 10 nM

IC50 (L1210 cells): 48 nM
Molecule: CNC1=CC(=O)C2=C(C1=O)C1C3=C(C(=O)C(Br)=C(OC)C3=O)C2c2ccccc21 (stereo not shown) [TT24]
GI50 [3]: 1410 nM
GI50 (NCI/ADR-RES): 1550 nM
GI50 [4]: 1440 nM
